Source: patent publication EP2077092A2, “System and Methods for Screening or Analyzing Targets” (Taipei Veterans General Hospital, priority 2007, dated 2009)

Experiments:
c-FLIP promoter = c-FLIP promoter luciferase assay in fluoxetine-treated NSCs; type: cell-based, Sprague-Dawley rats; conditions: fluoxetine 20 µm; full-length and deletion mutants of the c-FLIP promoter in NSCs
Experimental: (§1) All animal used were treated in accordance with the Animal Care and Use Committee guideline at Taipei Veterans General Hospital. Adult Sprague-Dawley rats (8 weeks old, 250 g) were anesthetized with intraperitoneal phenobarbital (Sigma, USA). The location of their brains was mapped: then, the brain was surgically separated from the hippocampus region with the procedure. Tissues from the hippocampus of the adult SD rats were dissociated and incubated in Hank's balanced salt solution (HB'SS) containing collagenase (78 units/ml) and hyaluronidase (38 units/ml) for 10 mins at 37°C. The tissues were then mechanically dissected and placed in a trypsin solution (1.33 mg/ml) at 37°C for another 10 mins. Dissociated cells were then centrifuged at 150g for 5 mins. The enzyme solution was then removed and replaced with serum-free culture media composed of Dulbecco modified Eagle medium (DMEM) and F-12 nutrient (1:1) including insulin (25 µg/mL), transferrin (100 µg/mL), progesterone (20 nM), putrescine (60µM), sodium selenite (30 nM), and human […] epidermal growth factor (EGF) 20 ng/mL and fibroblast growth factor-basic (bFGF) 20 ng/mL (R&D Systems, Minneapolis, MN). Viable cells were counted by trypan blue exclusion and plated as 5000 cells/200 µL per well in 96-well plates (Corning, Acton, MA) with no substrate pretreatment. […]

c-FLIP = c-FLIP mRNA expression in fluoxetine-treated NSCs (real-time RT-PCR); type: cell-based, Sprague-Dawley rats; conditions: FL-treated NSCs
Experimental: (§2) All animal used were treated in accordance with the Animal Care and Use Committee guideline at Taipei Veterans General Hospital. Adult Sprague-Dawley rats (8 weeks old, 250 g) were anesthetized with intraperitoneal phenobarbital (Sigma, USA). The location of their brains was mapped: then, the brain was surgically separated from the hippocampus region with the procedure. Tissues from the hippocampus of the adult SD rats were dissociated and incubated in Hank's balanced salt solution (HB'SS) containing collagenase (78 units/ml) and hyaluronidase (38 units/ml) for 10 mins at 37°C. The tissues were then mechanically dissected and placed in a trypsin solution (1.33 mg/ml) at 37°C for another 10 mins. Dissociated cells were then centrifuged at 150g for 5 mins. […] Viable cells were counted by trypan blue exclusion and plated as 5000 cells/200 µL per well in 96-well plates (Corning, Acton, MA) with no substrate pretreatment.
For real-time RT-PCR, the total RNA was extracted using the RNAeasy kit (Qiagen, Valencia, CA, USA) as previously described C.L. Kao et al., Mod Pathol 18 (2005) 769-778.[15]. […] The quantification in the unknown samples was performed by the LightCycler Relative Quantification Software version 3.3 (Roche Molecular Systems, Alameda, CA, USA). […]

c-FLIPL = assay: c-FLIP protein expression in fluoxetine-treated NSCs (Western analysis); type: cell-based, Sprague-Dawley rats; conditions: FL-treated NSCs
Experimental: as §2, with “pretreatment. […]” for “pretreatment.”
An avidin-biotin complex method was used for the immunohistochemical staining in the differentiated NSCs. […] Immunoreactive signals were detected with a mixture of biotinylated rabbit antimouse IgG and Fluoesave (Calbiochem, La Jolla, CA, USA) under immunofluorescent microscope (Olympus FV300).

[1] = system: inactive caspases 8 (pro-form); assay: Protein level of inactive caspase 8 (pro-form) in fluoxetine-treated NSCs; type: cell-based, Sprague-Dawley rats; conditions: different concentrations of fluoxetine treatment
Experimental: as §1

[2] = system: inactive caspases 3 (pro-form); assay: Protein level of inactive caspase 3 (pro-form) in fluoxetine-treated NSCs; type: cell-based, Sprague-Dawley rats; conditions: different concentrations of fluoxetine treatment
Experimental: as §1

[3] = design: species or system Sprague-Dawley rats; conditions: in vivo, iv, 30 mg/kg, 360 min
Experimental: Adult, male Sprague-Dawley rats (280-350 g) were obtained from the Laboratory Animal Center at National Yang-Ming University (Taipei, Taiwan). These animals were specifically pathogen-free and were allowed to acclimate to their environmentally controlled quarters (24 ± 1°C and 12:12 h light-dark cycle) for at least 5 days before the experiments began. At the start of experiments, the rats were anesthetized with urethane 0.8 g/ml and chloralose 0.08 g/ml ([…], i.p.). Throughout the experimental period, anesthesia was maintained by administering one quarter of the initial dose at each hour. The experimental animals were kept warm with a heating pad throughout the experiments.
The HPLC system consisted of a chromatographic pump (BAS PM-80, Bioanalytical System, West Lafayette, IN, USA), an on-line injector (CMA/160, Stockholm, Sweden) equipped with a 20 µl sample loop and a UV detector (Soma S-3702, Tokyo, Japan). […] Output signal from the HPLC-UV was recorded using an EZChrom chromatographic data system (Scientific Software, San Ramon, CA, USA). […]
For in vivo recovery, normal saline solution containing cefoperazone (50 or 100 µg/ml) were pumped through the probes at a constant flow rate (2 µl/min) using the infusion pump (CMA/100). After a stabilization period of 2 h, the inlet (Cin) and outlet (Cout) concentrations of cefoperazone were determined by HPLC. […]

Bcl-2 protein = Bcl-2 protein expression in NSCs by western blot and immunohistochemistry; type: cell-based, Sprague-Dawley (SD) rats; conditions: siRNA or MAPK inhibitor added to IM-treated NSCs
LPS-treated NSCs [4] = assay: MTT cell survival of LPS-treated NSCs; type: cell-based, Sprague-Dawley (SD) rats; conditions: siRNA or U0126 added to LPS- and IM-treated NSCs
caspase 8 = assay: Caspase 8 activity ELISA in LPS-treated NSCs; type: cell-based, Sprague-Dawley (SD) rats; conditions: siRNA or U0126 (40 µM) added to LPS- and IM-treated NSCs
caspase 3 = assay: Caspase 3 activity ELISA in LPS-treated NSCs; type: cell-based, Sprague-Dawley (SD) rats; conditions: siRNA or U0126 (40 µM) added to LPS- and IM-treated NSCs
LPS-treated NSCs [5] = assay: TUNEL assay of LPS-induced apoptosis in NSCs; type: cell-based, Sprague-Dawley (SD) rats; conditions: siRNA or U0126 (40 µM) added to LPS- and IM-treated NSCs
IL-1β = IL-1β ELISA in LPS-treated NSCs; type: cell-based, Sprague-Dawley (SD) rats; conditions: siRNA or U0126 (40 µM) added to LPS- and IM-treated NSCs
IL-6 = IL-6 ELISA in LPS-treated NSCs; type: cell-based, Sprague-Dawley (SD) rats; conditions: siRNA or U0126 (40 µM) added to LPS- and IM-treated NSCs
TNF-α = TNF-α ELISA in LPS-treated NSCs; type: cell-based, Sprague-Dawley (SD) rats; conditions: siRNA or U0126 (40 µM) added to LPS- and IM-treated NSCs
NSCs [6] = assay: Immunofluorescent assay of MAP-2-positive cells in differentiating NSCs; type: cell-based, Sprague-Dawley (SD) rats; conditions: siRNA or U0126 added, Day 7 culture of IM-treated NSCs
NSCs [7] = assay: Immunofluorescent assay of serotonin (5-HT)-positive cells in differentiating NSCs; type: cell-based, Sprague-Dawley (SD) rats; conditions: siRNA or U0126 added, Day 7 culture of IM-treated NSCs
NSCs [8] = assay: Microdialysis with HPLC-ECD of 5-HT in the culture medium of IM-treated NSCs; type: cell-based, Sprague-Dawley (SD) rats; conditions: siRNA or U0126 added, Day 7 and Day 14, p<0.05

In the case of `CNCCC(Oc1ccc(C(F)(F)F)cc1)c1ccccc1` (centres unmarked) [FL, fluoxetine], the “activation of c-FLIP promoter (luciferase assay)” value (c-FLIP promoter) is reported as “c-FLIP promoter region from bp -414 to -133 was necessary for its activation by FL”, the “mRNA expression of c-FLIP” value (c-FLIP) is reported as “up-regulated” and the “protein expression of c-FLIP” value (c-FLIPL) is reported as “up-regulated”. The “protein levels of inactive caspases 8 (pro-form)” value [1] was “not decreased” and the “protein levels of inactive caspases 3 (pro-form)” value [2] was “not decreased”.
In the case of `CCN1CCN(C(=O)N[C@@H](C(=O)N[C@@H]2C(=O)N3C(C(=O)O)=C(CSc4nnnn4C)CS[C@H]23)c2ccc(O)cc2)C(=O)C1=O` [cefoperazone], the “cefoperazone in microdialysate from rat biliary duct” value [3] is reported as 27.8 µg/mL.
For `N#CC(=C(/N)Sc1ccccc1N)/C(C#N)=C(\N)Sc1ccccc1N` [U0126], the “Bcl-2 expression induced by IM in NSCs” value (Bcl-2 protein) was “effectively blocked”, the “cell viability in the LPS-treated NSCs with IM” value (LPS-treated NSCs [4]) was “dramatically decreased” and the “apoptotic activities (caspase 8) in LPS- and IM-treated NSCs” value (caspase 8) was “significantly enhanced”. For the same compound, the “apoptotic activities (caspase 3) in LPS- and IM-treated NSCs” value (caspase 3) was “significantly enhanced”, the “apoptotic activities (TUNEL) in LPS- and IM-treated NSCs” value (LPS-treated NSCs [5]) was “significantly enhanced” and the “levels of IL-1β in LPS-treated NSCs with IM” value (IL-1β) was “significantly increased”. For the same compound, the “levels of IL-6 in LPS-treated NSCs with IM” value (IL-6) was “significantly increased”, the “levels of TNF-α in LPS-treated NSCs with IM” value (TNF-α) was “significantly increased” and the “percentages of MAP-2-positive cells in IM-treated NSCs” value (NSCs [6]) was “significantly decrease”. The “percentages of serotonin (5-HT)-positive cells in IM-treated NSCs” value (NSCs [7]) was “significantly decrease” and the “production of 5-HT of the IM-treated NSCs” value (NSCs [8]) was “significantly diminished”.
